The structures appear in SMILES notation.

The first test deals with endogenous CETP from serum (Homo sapiens (Human), UniProt P11597). In words: RTA assay in 95% human serum (CETP-catalyzed CE and TG transfer, endogenous CETP). It counts as biochemical. To be noted: 95% human serum; read-out: RTA (95% HS). From the text: In Vitro Radioactive Assays of CETP-Catalyzed CE and TG Transfer (RTA Assay)
Sequence of endogenous CETP from serum (P11597 18-493 limits assumed): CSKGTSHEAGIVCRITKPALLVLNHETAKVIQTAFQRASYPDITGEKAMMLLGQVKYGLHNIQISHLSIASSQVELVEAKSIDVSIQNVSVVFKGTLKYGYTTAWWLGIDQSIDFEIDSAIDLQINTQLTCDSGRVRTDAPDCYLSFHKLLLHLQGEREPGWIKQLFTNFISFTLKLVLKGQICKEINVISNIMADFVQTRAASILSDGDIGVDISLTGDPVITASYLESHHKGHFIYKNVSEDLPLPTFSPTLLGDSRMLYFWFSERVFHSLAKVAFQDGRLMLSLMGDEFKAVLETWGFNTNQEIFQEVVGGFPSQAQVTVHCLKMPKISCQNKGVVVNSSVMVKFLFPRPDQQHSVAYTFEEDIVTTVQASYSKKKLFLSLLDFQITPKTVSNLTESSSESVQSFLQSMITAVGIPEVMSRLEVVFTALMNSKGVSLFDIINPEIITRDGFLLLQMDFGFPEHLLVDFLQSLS
Reagents and sources are: [3H] cholesteryl oleate (GE #TRK.886), [3H] Triolein (Perkin-Elmer NET-431), Butylated hydroxyl toluene (Aldrich, #D4740-4), DOPC (Sigma, #P6354), Sodium Bromide (Fisher scientific #S255-500), PEG 8000 (Fisher, #BP233-1), and human HDL (Intracel Corp #RP-036).
Both assays measure the transfer of [3H] cholesteryl oleate or [3H] triolein from exogenous LDL to HDL.
Radiolabeled donor particles are generated by first combining 100 μl of 200 μM butylated hydroxyl toluene in CHCl3, 216 μL of 21.57 mM DOPC in EtOH, and either 500 μCi [3H]-triolein (Perkin Elmer #NET-431) or 500 μCi [3H]-cholesteryl oleate (GE #TRK886) in a glass tube. Reagents are mixed, dried under nitrogen, and then resuspended in 2 mL of 50 mM Tris, 27 μM EDTA at pH 7.4. After a brief vortex, the solution is sonicated until clear and mixed with 20 mL of fresh human serum. The mixture is incubated overnight at 37° C. The [3H] labeled LDL substrate is separated at 1.063 g/ml density by sequential ultracentrifugal flotation in NaBr according to the method of Havel, Eder, et al., 1955, and Chapman, Goldstein, et al., 1981. Once isolated the particles are dialyzed 3× in CETP buffer (50 mM Tris, pH 7.4, 100 mM NaCl, 1 mM EDTA). Human HDL is purchased from Intracel and used as the acceptor particles.
Transfer assays are performed in a 96-well v-bottom polypropylene plate. For the RTA using recombinant CETP (2% RTA), an assay cocktail is prepared with the final concentrations 128 μg/mL HDL, 20 nM rCETP, 2% human serum, and 1×CETP buffer. 1 μL of each test compound diluted in DMSO is added to 47 μL of assay cocktail per well and incubated at 37° C. for 1 hour. To initiate the transfer reaction, 2 μL radiolabeled LDL is added. After an additional 60 min of incubation at 37° C., the transfer action is terminated by precipitation of LDL with an equal volume of 20% W/V PEG 8000. The plates are centrifuged at 2000 rpm for 30 minutes at 4° C. A 40 μL aliquot of the HDL-containing supernatant is transferred to a Packard Optiplate™ with 200 μL of MicroScint™ 20. After mixing, plates are counted by liquid scintillation. Counts present in the supernatant for blanks (wells containing only HDL acceptor, CETP buffer and DMSO) are subtracted from those containing test compounds and used to correct for non-specific transfer.
For the transfer assay using endogenous CETP from serum (95% RTA), the same procedure is used except that human serum is added such that a final concentration of serum of 95% of the total assay volume is achieved, yielding a concentration of approximately 15 nM endogenous CETP in the assay. This is then combined with HDL and CETP buffer and the reaction proceeds as above and is terminated as described.
Comparison of the counts of samples with inhibitors to an uninhibited (DMSO only) positive control yield a percent inhibition. A plot of percent inhibition vs. log of inhibitor concentration, fit to a Sigmoidal 4 parameter equation is used to calculate IC50.
Starting materials are commercially available or are made using known procedures or as shown below. The examples may be synthesized according to the general schemes provided below and through the synthetic intermediates that are described. […] When compounds of Formula I or Formula II are mentioned herein, such compounds include compounds defined generically by Formula I or II and also the specific examples disclosed herein.
Regarding `COc1ccc([C@H]2C[C@H](C(=O)O)C2)cc1-c1ccc(C(F)(F)F)nc1CN1C(=O)O[C@H](c2cc(C(F)(F)F)cc(C(F)(F)F)c2)C12CC2` [Example 1, trans-3-{3-[2-({(7R)-7-[3,5-bis(trifluoromethyl)phenyl]-5-oxo-6-oxa-4-azaspiro[2.4]hept-4-yl}methyl)-6-(trifluoromethyl)pyridin-3-yl]-4-methoxyphenyl}cyclobutanecarboxylic acid], the IC50 came to 962 nM.
`COc1ccc([C@H]2C[C@H](CO)C2)cc1-c1ccc(C(F)(F)F)nc1CN1C(=O)O[C@H](c2cc(C(F)(F)F)cc(C(F)(F)F)c2)C12CC2` [Example 6, (7R)-7-[3,5-bis(trifluoromethyl)phenyl]-4-{[3-{5-[trans-3-(hydroxymethyl)cyclobutyl]-2-methoxyphenyl}-6-(trifluoromethyl)pyridin-2-yl]methyl}-6-oxa-4-azaspiro[2.4]heptan-5-one]: the IC50 is 1850 nM.
For `COc1ccc(-c2ccc(C(=O)O)cc2C)cc1-c1cnc(N(C)C)nc1CN1C(=O)O[C@H](c2cc(C(F)(F)F)cc(C(F)(F)F)c2)C12CC2` [Example 9, 3′-[4-({(7R)-7-[3,5-bis(trifluoromethyl)phenyl]-5-oxo-6-oxa-4-azaspiro[2.4]hept-4-yl}methyl)-2-(dimethylamino)pyrimidin-5-yl]-4′-methoxy-2-methylbiphenyl-4-carboxylic acid], the IC50 stood at 55.5 nM.
On the same count and under the same terms, with `COC(=O)c1ccc(-c2ccc(OC)c(-c3cnc(SC)nc3CN3C(=O)O[C@H](c4cc(C(F)(F)F)cc(C(F)(F)F)c4)C34CCC4)c2)c(C)c1` [Example 17, methyl 3′-[4-({(8R)-8-[3,5-bis(trifluoromethyl)phenyl]-6-oxo-7-oxa-5-azaspiro[3.4]oct-5-yl}methyl)-2-(methylsulfanyl)pyrimidin-5-yl]-4′-methoxy-2-methylbiphenyl-4-carboxylate] the figure was 913 nM.

The same test, now with this note: generally RTA assay in 95% human serum; read-out: IC50.
Take `COc1ccc(-c2ccc(C(=O)O)cc2C)cc1-c1ccc(C(F)(F)F)nc1CN1C(=O)O[C@H](c2cc(C(F)(F)F)cc(C(F)(F)F)c2)C12CC2` [Example 2, 3′-[2-({(7R)-7-[3,5-bis(trifluoromethyl)phenyl]-5-oxo-6-oxa-4-azaspiro[2.4]hept-4-yl}methyl)-6-(trifluoromethyl)pyridine-3-yl]-4′-methoxy-2-methylbiphenyl-4-carboxylic acid]: the IC50 came out at 212 nM.
With `COc1cc(F)c(-c2ccc(C(=O)O)cc2C)cc1-c1ccc(C(F)(F)F)nc1CN1C(=O)O[C@H](c2cc(C(F)(F)F)cc(C(F)(F)F)c2)C12CC2` [Example 3, 5′-[2-({(7R)-7-[3,5-bis(trifluoromethyl)phenyl]-5-oxo-6-oxa-4-azaspiro[2.4]hept-4-yl}methyl)-6-(trifluoromethyl)pyridin-3-yl]-2′-fluoro-4′-methoxy-2-methylbiphenyl-4-carboxylic acid], the IC50 worked out at 119 nM.
Same read-out and setting: for `COc1ncc(-c2ccc(C(=O)O)cc2C)cc1-c1ccc(C(F)(F)F)nc1CN1C(=O)O[C@H](c2cc(C(F)(F)F)cc(C(F)(F)F)c2)C12CC2` [Example 4, 4-[2′-({(7R)-7-[3,5-bis(trifluoromethyl)phenyl]-5-oxo-6-oxa-4-azaspiro[2.4]hept-4-yl}methyl)-2-methoxy-6′-(trifluoromethyl)-3,3′-bipyridin-5-yl]-3-methylbenzoic acid] the value was 173 nM; for `COc1ccc(CCC(=O)O)cc1-c1ccc(C(F)(F)F)nc1CN1C(=O)O[C@H](c2cc(C(F)(F)F)cc(C(F)(F)F)c2)C12CC2` [Example 5, 3-{3-[2-({(7R)-7-[3,5-bis(trifluoromethyl)phenyl]-5-oxo-6-oxa-4-azaspiro[2.4]hept-4-yl}methyl)-6-(trifluoromethyl)pyridin-3-yl]-4-methoxyphenyl}propanoic acid], 3360 nM.
Regarding `COc1ccc(-c2ccc(CO)cc2C)cc1-c1cnc(N2CC(F)C2)nc1CN1C(=O)O[C@H](c2cc(C(F)(F)F)cc(C(F)(F)F)c2)C12CCC2` [Example 7, (8R)-8-[3,5-bis(trifluoromethyl)phenyl]-5-({2-(3-fluoroazetidin-1-yl)-5-[4′-(hydroxymethyl)-4-methoxy-2′-methylbiphenyl-3-yl]pyrimidin-4-yl}methyl)-7-oxa-5-azaspiro[3.4]octan-6-one], the IC50 is 68 nM.
Consider `COc1cc(F)c(C(C)C)cc1-c1cnc(N(C)C)nc1CN1C(=O)OC(c2cc(C(F)(F)F)cc(C(F)(F)F)c2)C12CC2` (stereo not shown) [Example 10, 7-[3,5-bis(trifluoromethyl)phenyl]-4-({2-(dimethylamino)-5-[4-fluoro-2-methoxy-5-(1-methylethyl)phenyl]pyrimidin-4-yl}methyl)-6-oxa-4-azaspiro[2.4]heptan-5-one], for which the IC50 was 345 nM.
The same measure, in the same setting: for `COc1cc(F)c(C(C)C)cc1-c1cnc(N(C)C)nc1CN1C(=O)OC(c2cc(C(F)(F)F)cc(C(F)(F)F)c2)C12CCC2` (stereo not shown) [Example 11, 8-[3,5-bis(trifluoromethyl)phenyl]-5-({2-(dimethylamino)-5[4-fluoro-2-methoxy-5-(1-methylethyl)phenyl]pyrimidin-4-yl}methyl)-7-oxa-5-azaspiro[3.4]octan-6-one] the value was 318 nM; for `COc1ccc(-c2ccc(C(=O)O)cc2C)cc1-c1cnc(N2CC(F)C2)nc1CN1C(=O)O[C@H](c2cc(C(F)(F)F)cc(C(F)(F)F)c2)C12CCC2` [Example 12, 3′-[4-({(8R)-8-[3,5-bis(trifluoromethyl)phenyl]-6-oxo-7-oxa-5-azaspiro[3.4]oct-5-yl}methyl)-2-(3-fluoroazetidin-1-yl)pyrimidin-5-yl]-4′-methoxy-2-methylbiphenyl-4-carboxylic acid], 73 nM.
Regarding `COc1ccc(-c2ccc(C(=O)O)cc2C)cc1-c1cnc(N2CCOCC2)nc1CN1C(=O)O[C@H](c2cc(C(F)(F)F)cc(C(F)(F)F)c2)C12CCC2` [Example 13, 3′-[4-({(8R)-8-[3,5-bis(trifluoromethyl)phenyl]-6-oxo-7-oxa-5-azaspiro[3.4]oct-5-yl}methyl)-2-morpholin-4-ylpyrimidin-5-yl]-4′-methoxy-2-methylbiphenyl-4-carboxylic acid], the IC50 was found to be 242 nM.
For the molecule `COc1ccc(-c2ccc(C(=O)O)cc2C)cc1-c1cnc(N(C)S(C)(=O)=O)nc1CN1C(=O)O[C@H](c2cc(C(F)(F)F)cc(C(F)(F)F)c2)C12CCC2` [Example 14, 3′-[4-({(8R)-8-[3,5-bis(trifluoromethyl)phenyl]-6-oxo-7-oxa-5-azaspiro[3.4]oct-5-yl}methyl)-2-[methyl (methylsulfonyl)amino]pyrimidin-5-yl}-4′-methoxy-2-methylbiphenyl-4-carboxylic acid], the IC50 came to 561 nM.
Same read-out and setting: with `COc1ccc(-c2ccc(C(=O)O)cc2C)cc1-c1cnc(N2CC(F)C2)nc1CN1C(=O)O[C@H](c2cc(C(F)(F)F)cc(C(F)(F)F)c2)C12CC2` [Example 15, 3′-[4-({(7R)-7-[3,5-bis(trifluoromethyl)phenyl]-5-oxo-6-oxa-4-azaspiro[2.4]hept-4-yl}methyl)-2-(3-fluoroazetidin-1-yl)pyrimidin-5-yl]-4′-methoxy-2-methylbiphenyl-4-carboxylic acid] the figure was 104 nM.
On the same count and under the same terms, with `COc1ccc(-c2ccc(C(=O)O)cc2C)cc1-c1cnc(N2CCOCC2)nc1CN1C(=O)O[C@H](c2cc(C(F)(F)F)cc(C(F)(F)F)c2)C12CC2` [Example 16, 3′-[4-({(7R)-7-[3,5-bis(trifluoromethyl)phenyl]-5-oxo-6-oxa-4-azaspiro[2.4]hept-4-yl}methyl)-2-morpholin-4-ylpyrimidin-5-yl]-4′-methoxy-2-methylbiphenyl-4-carboxylic acid] the figure was 272 nM.

For the origin of these results see US9717714B2, “Spirocyclic CETP inhibitors” (Merck Sharp & Dohme Corp., priority 2012, dated 2017).
